Literature values in patent publication US20260027125A1, “AN ANTIBACTERIAL PARENTERAL FORMULATION AND METHODS THEREOF” (BUGWORKS RESEARCH INDIA PVT. LTD., priority 2022, published 2026).

Conditions: counter ion selected for salt screening; cited from earlier work

O=C(O)CC(O)C(=O)O (stereo not shown) [malic acid]
pKa (second value): 3.4, 5.11
